Assays:
[1] = tested on: Math1 transcript; assay: Detection of Math1 transcript by quantitative real-time PCR in duodenum of treated rats; type: in vivo; details: at earlier time points and at lower dose; Han Wistar rats, intraperitoneally, bid for 5 days
Experimental: (§1) Using gene expression profiling we detected several deregulated factors that are consistent with Hes-1 KO data. We confirmed the up-regulation of ADN mRNA in intestinal tissue by DBZ and BZ treatment but not AS treatment. […] This up-regulation preceded the appearance of goblet cell metaplasia in the crypts.
(§2) Compounds with varying potency for modulating the Notch1 pathway and causing intestinal metaplasia were injected intraperitoneally into rats twice daily for 5 days at a concentration of 10 μmol/kg, 30 μmol/kg and 100 μmol/kg. A section of duodenum was taken from untreated rats and those treated with compound. Samples were immediately frozen in liquid nitrogen then placed in a freezer maintained at −80° C. for preservation. […]
(§3) Quantitative real-time PCR (QRT-PCR) was performed by creating a standard curve assaying the gene of interest at known cDNA quantities of 50 ng, 25 ng, 8.33 ng, 2.76 ng, 0.910 ng and 0.154 ng. […] Biosource International (Camarillo, Calif.) synthesized oligonucleotide primers and fluorescence resonance energy transfer (FRET) probes. […] The raw data were applied to the standard curve and quantities were extrapolated using Prism by GraphPad Software (San Diego, Calif.). These quantities were then transformed to express fold change relative to the vehicle control (VC).

[2] = tested on: ADN mRNA; assay: Gene expression profiling / QRT-PCR of adipsin (ADN) mRNA in intestinal tissue of treated rats; type: in vivo; details: Han Wistar rats, intraperitoneally, 10, 30 and 100 μmol/kg/bid for 5 days
Experimental: as §1, §2, §3

[3] = tested on: Notch signal; details: cited from earlier work

In the case of `C[C@H](NC(=O)Cc1cc(F)cc(F)c1)C(=O)N[C@@H]1C(=O)N(C)c2ccccc2-c2ccccc21` [DBZ], the “induction of Math1 compared with ADN” value [1] is listed as “markedly higher than ADN”, the “up-regulation of ADN mRNA in intestinal tissue” value [2] is listed as “up-regulation” and the Notch signal interruption [3] is listed as “known to interrupt the Notch signal”.

— patent US20090253126A1, “Biomarker Detection Assays” (ASTRAZENECA AB, priority 2004, published 2009)
